In US9533128B2, “Devices for maintaining patency of surgically created channels in tissue” (Broncus Medical Inc., priority 2003, dated 2017):

Conditions: polymer system of polydimethylsiloxane vinyl terminated at various viscosity and platinum-mono, di, tri and/or tetramethyldisiloxane complex
Text: These components may be combined in different ratios to make the polymer. […] The amount of vinyl siloxane cross-linker may determine the rate of the drug release and diffusivity of the polymer to the drug.

Compound: CC(=O)O[C@H]1C(=O)[C@@]2(C)[C@H]([C@H](OC(=O)c3ccccc3)[C@]3(O)C[C@H](OC(=O)[C@H](O)[C@@H](NC(=O)c4ccccc4)c4ccccc4)C(C)=C1C3(C)C)[C@]1(OC(C)=O)CO[C@@H]1C[C@@H]2O [paclitaxel]
- release profile: acceptable
